Test [1] addresses T1, Beta-3 adrenergic receptor (Homo sapiens, UniProt P13945). Nature of the test: Intrinsic activity (IA) at human Beta-3 adrenergic receptor (represented by the percentage of the maximal response attained by isoproterenol). Format: functional.
Target sequence in this assay (P13945 whole entry, looked up): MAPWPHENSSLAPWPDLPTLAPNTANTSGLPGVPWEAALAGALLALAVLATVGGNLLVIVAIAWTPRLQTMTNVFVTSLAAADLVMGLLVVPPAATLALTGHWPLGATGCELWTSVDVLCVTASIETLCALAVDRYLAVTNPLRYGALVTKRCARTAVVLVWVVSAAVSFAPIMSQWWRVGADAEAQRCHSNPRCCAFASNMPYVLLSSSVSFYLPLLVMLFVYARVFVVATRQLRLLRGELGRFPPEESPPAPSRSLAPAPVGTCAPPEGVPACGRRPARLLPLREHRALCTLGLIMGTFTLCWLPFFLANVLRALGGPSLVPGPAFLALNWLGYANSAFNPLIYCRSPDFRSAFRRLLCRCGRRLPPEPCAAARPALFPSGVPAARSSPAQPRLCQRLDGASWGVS
For test [2], the target named is T1, Beta-3 adrenergic receptor. Kind of test: Agonist activity (EC50) was assessed by measuring cAMP levels in CHO cells expressing cloned human Beta-3 adrenergic receptor. In kind it is functional, cell-based. For orientation: cAMP levels reflect the balance of adenylyl cyclase and phosphodiesterase activity.
Target sequence in this assay (P13945 whole entry): as the sequence (P13945 whole entry, looked up) above
The target of test [3] is Beta-1 adrenergic receptor (Homo sapiens) (UniProt P08588). Kind of test: Intrinsic activity (IA) at human Beta-1 adrenergic receptor (at 30 uM, represented by the percentage of the maximal response attained by isoproterenol). Format: functional.
The target of test [4] is Beta-2 adrenergic receptor (Homo sapiens) (UniProt P07550). Kind of test: Intrinsic activity (IA) human Beta-2 adrenergic receptor (at 30 uM, represent by the percentage of the maximal response attained by isoproterenol). Format: functional.
Test [5] has as its target Beta-1 adrenergic receptor (Homo sapiens) (UniProt P08588). Nature of the test: Intrinsic activity (IA) of 30 uM compound at human Beta-1 adrenergic receptor represent the percentage of the maximal response attained by isoproterenol.

Beta-2 adrenergic receptor (Homo sapiens), sequence (P07550 whole entry, looked up): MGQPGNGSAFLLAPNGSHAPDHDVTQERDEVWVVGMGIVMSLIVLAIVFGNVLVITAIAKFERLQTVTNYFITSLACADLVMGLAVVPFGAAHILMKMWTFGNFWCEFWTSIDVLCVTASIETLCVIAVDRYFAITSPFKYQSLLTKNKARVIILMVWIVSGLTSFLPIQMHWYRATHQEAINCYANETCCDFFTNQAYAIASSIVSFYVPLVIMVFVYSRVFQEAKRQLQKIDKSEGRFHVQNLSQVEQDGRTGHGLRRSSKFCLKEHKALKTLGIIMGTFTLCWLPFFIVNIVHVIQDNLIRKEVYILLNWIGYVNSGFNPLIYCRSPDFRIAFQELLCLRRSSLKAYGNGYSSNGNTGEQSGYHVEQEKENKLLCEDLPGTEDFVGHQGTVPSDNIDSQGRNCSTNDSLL
Beta-1 adrenergic receptor (Homo sapiens), sequence (P08588 whole entry, looked up): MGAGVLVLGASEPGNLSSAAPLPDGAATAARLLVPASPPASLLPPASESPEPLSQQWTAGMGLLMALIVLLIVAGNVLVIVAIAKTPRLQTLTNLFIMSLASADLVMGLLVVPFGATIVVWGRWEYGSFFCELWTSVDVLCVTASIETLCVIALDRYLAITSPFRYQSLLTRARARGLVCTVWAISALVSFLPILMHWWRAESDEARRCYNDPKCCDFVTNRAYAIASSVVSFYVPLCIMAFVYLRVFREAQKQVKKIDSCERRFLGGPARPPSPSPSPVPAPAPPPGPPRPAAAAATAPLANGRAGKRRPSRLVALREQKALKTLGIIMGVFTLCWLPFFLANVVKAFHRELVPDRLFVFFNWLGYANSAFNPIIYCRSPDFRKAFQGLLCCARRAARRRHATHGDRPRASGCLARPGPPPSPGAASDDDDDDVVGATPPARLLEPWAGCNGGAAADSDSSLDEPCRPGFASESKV

`CC(C)(Cc1ccc(NS(=O)(=O)N2CCC(c3ccccc3)CC2)cc1)NC[C@H](O)c1cccnc1`: the values for the IA in test [1], in test [3] and in test [4] were 106, 20 and 9, respectively. This compound came in with an EC50 in test [2] of 0.047 µM.

Take `CN(C)S(=O)(=O)Nc1ccc(CC(C)(C)NC[C@H](O)c2cccnc2)cc1`: the IA in test [1] worked out at 98; in test [3], 10; in test [4], 7. In test [2], this compound had an EC50 of 0.038 µM.

Regarding `CN(C)S(=O)(=O)N(C)c1ccc(CCNC[C@H](O)c2cccc(Cl)c2)cc1`, the values for the IA in test [1], in test [3] and in test [4] were 105, 2 and 1, respectively. This compound showed an EC50 in test [2] of 9.9 µM.

Turning to `O=S(=O)(Nc1ccc(CCNC[C@H](O)c2cccnc2)cc1)N1CCC(c2ccccc2)CC1`, the values for the IA in test [1], in test [3] and in test [4] were 100, 2 and 2, respectively. It took 0.023 µM to reach a half-maximal effect in test [2] (EC50).

In the case of `O=S(=O)(Nc1ccc(CCNC[C@H](O)c2cccc(Cl)c2)cc1)NC1CCCCC1`, the IA was 10 in test [5], 63 in test [1] and 7 in test [4]. This compound returned an EC50 in test [2] of 0.464 µM.

Consider `CN(C)S(=O)(=O)Nc1ccc(OCCNC[C@H](O)c2cccnc2)cc1`, for which the IA came to 96 in test [1], 3 in test [3] and 4 in test [4]. This compound returned an EC50 in test [2] of 0.943 µM.

For the compound `CN(C1CCCCC1)S(=O)(=O)Nc1ccc(CCNC[C@H](O)c2cccnc2)cc1`, the IA in test [1] came to 67; in test [3], 15; in test [4] it was 16. Also, the midpoint of the response in test [2], the EC50, lay at 0.18 µM.

Take `CN(C1CCCCC1)S(=O)(=O)Nc1ccc(CCNC[C@H](O)c2cccc(Cl)c2)cc1`: the IA in test [1] stood at 62; in test [3] it was 6; in test [4], 5. Moreover, in test [2], the EC50 was 0.537 µM.

With `CC(C)(Cc1ccc(NS(=O)(=O)Nc2ccccc2)cc1)NC[C@H](O)c1cccnc1`, the IA was found to be 107 in test [1], 29 in test [3] and 8 in test [4]. This compound also registered an EC50 in test [2] of 0.007 µM.

For `C[C@@H]1C[C@H](C)CN(S(=O)(=O)Nc2ccc(CC(C)(C)NC[C@H](O)c3cccnc3)cc2)C1`, the IA stood at 89 in test [1], 7 in test [3] and 11 in test [4]. In test [2], this compound registered an EC50 of 0.004 µM.

For `CC(C)(Cc1ccc(NS(=O)(=O)N2CCN(Cc3ccccc3)CC2)cc1)NC[C@H](O)c1cccnc1`, the IA in test [1] was found to be 105; in test [3] it was 46; in test [4], 13. This compound also returned an EC50 in test [2] of 0.018 µM.

With `CC1CCN(S(=O)(=O)Nc2ccc(CC(C)(C)NC[C@H](O)c3cccnc3)cc2)CC1`, the IA in test [1] worked out at 91; in test [3], 12; in test [4], 6. Besides, the response in test [2] was half-maximal at 0.01 µM (EC50).

With `O=S(=O)(Nc1ccc(CCNC[C@H](O)c2cccnc2)cc1)c1ccc(-c2nc(-c3ccc(C(F)(F)F)cc3)cs2)cc1`, the IA in test [1] worked out at 92; in test [3], 1; in test [4], 1.

For the compound `CC1CCN(S(=O)(=O)Nc2ccc(CCNC[C@H](O)c3cccnc3)cc2)CC1`, the results for the IA in test [1], in test [3] and in test [4] were 80, 6 and 8, respectively. Further, the EC50 in test [2] turned out to be 0.036 µM.

For the compound `C[C@@H]1CN(S(=O)(=O)Nc2ccc(CC(C)(C)NC[C@H](O)c3cccnc3)cc2)C[C@H](C)O1`, the IA is 85 in test [1], 10 in test [3] and 8 in test [4]. The compound also displayed a 50% effective concentration (EC50) in test [2] of 0.008 µM.

Turning to `C[C@@H]1C[C@H](C)CN(S(=O)(=O)Nc2ccc(CCNC[C@H](O)c3cccnc3)cc2)C1`, the IA in test [1] came to 95; in test [3], 11; in test [4], 17. In addition, in test [2], the midpoint of the response, the EC50, lay at 0.024 µM.

Turning to `O=S(=O)(Nc1ccc(CCNC[C@H](O)c2cccnc2)cc1)N1CCCCC1`, the values for the IA in test [1], in test [3] and in test [4] were 77, 7 and 6, respectively. Moreover, in test [2], the response was half-maximal at 0.099 µM (EC50).

In the case of `COCCNS(=O)(=O)Nc1ccc(CC(C)(C)NC[C@H](O)c2cccnc2)cc1`, the results for the IA in test [1], in test [3] and in test [4] were 103, 28 and 24, respectively. For the same compound, the EC50 in test [2] turned out to be 0.165 µM.

As to `O=S(=O)(Nc1ccc(CCNC[C@H](O)c2cccnc2)cc1)NC1CCCCC1`, the values for the IA in test [1], in test [3] and in test [4] were 71, 0 and 0, respectively. In test [2], the EC50 is 1.46 µM.

Consider `CC(C)(Cc1ccc(NS(=O)(=O)NC2CCCCC2)cc1)NC[C@H](O)c1cccnc1`, for which the IA in test [1] is 110; in test [3] it was 17; in test [4], 19. Besides, the EC50 in test [2] was found to be 0.025 µM.

As to `O=S(=O)(Nc1ccc(CCNC[C@H](O)c2cccc(Cl)c2)cc1)N1CCCCC1`, the IA in test [1] was 84; in test [3], 4; in test [4], 5. For the same compound, the EC50 in test [2] was 0.617 µM.

Regarding `CN(C)S(=O)(=O)Nc1ccc(CCNC[C@H](O)c2cccnc2)cc1`, the IA in test [1] stood at 84; in test [3], 6; in test [4], 11. In addition, the EC50 in test [2] is 0.265 µM.

Regarding `CC1CCN(S(=O)(=O)Nc2ccc(OCCNC[C@H](O)c3cccnc3)cc2)CC1`, the IA in test [1] was found to be 98; in test [3], 5; in test [4] it was 7. Besides, a half-maximal effect in test [2] (EC50) was put at 1.36 µM.

As to `CN1CCN(S(=O)(=O)Nc2ccc(CC(C)(C)NC[C@H](O)c3cccnc3)cc2)CC1`, the figures for the IA in test [1], in test [3] and in test [4] were 79, 7 and 4, respectively. In addition, the EC50 in test [2] is 0.041 µM.

Regarding `CN(C)S(=O)(=O)Nc1ccc(CCNC[C@H](O)c2cccc(Cl)c2)cc1`, the IA amounted to 75 in test [1], 5 in test [3] and 6 in test [4]. A half-maximal effect in test [2] (EC50) was put at 0.299 µM.

The EC50 is the concentration needed to bring the measured effect to its halfway point.

Values taken from ChEMBL document CHEMBL1146653, “Potent and selective, sulfamide-based human beta 3-adrenergic receptor agonists” (Bioorg Med Chem Lett, 2004).
